According to US11053204B2, “Pyrimidinyloxy benzene derivatives as herbicides” (FMC Corporation, priority 2015, dated 2021):

What was measured:
Assay type in all cases: in vivo
[1] = test system: ducksalad (Heteranthera limosa); experiment: Test B flooded paddy test, plant response rating; details: 250 g ai/ha; Flood; scale of 0 to 100 where 0 is no effect and 100 is complete control; 13 to 15 days
Method in brief: (§1)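 Ratings were visual and made relative to untreated controls after 13 to 15 greenhouse days.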

[2] = test system: rice (Oryza sativa); experiment: Test B flooded paddy test, plant response rating; details: 250 g ai/ha; Flood; scale of 0 to 100 where 0 is no effect and 100 is complete control; 13 to 15 days
Method in brief: as §1

[3] = test system: sedge, umbrella (small-flower umbrella sedge, Cyperus difformis); experiment: Test B flooded paddy test, plant response rating; details: 250 g ai/ha; Flood; scale of 0 to 100 where 0 is no effect and 100 is complete control; 13 to 15 days
Method in brief: as §1

[4] = test system: blackgrass (Alopecurus myosuroides); experiment: Test C preemergence, plant response rating; details: Preemergence
Method in brief: (§2)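 Visual injury score, 0 = no effect, 100 = complete control, assigned against untreated controls after 13 to 15 d in the greenhouse. Compounds were applied in a surfactant-containing non-phytotoxic solvent mix, preemergence to seeded loam/sand or silt loam soil, or postemergence to 1- to 4-leaf plants (2 to 18 cm).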

[5] = test system: corn (Zea mays); experiment: Test C preemergence, plant response rating; details: Preemergence
Method in brief: as §2

[6] = test system: crabgrass, large (large crabgrass, Digitaria sanguinalis); experiment: Test C preemergence, plant response rating; details: Preemergence
Method in brief: as §2

[7] = test system: foxtail, giant (giant foxtail, Setaria faberii); experiment: Test C preemergence, plant response rating; details: Preemergence
Method in brief: as §2

[8] = test system: lambsquarters (Chenopodium album); experiment: Test C preemergence, plant response rating; details: Preemergence
Method in brief: as §2

[9] = test system: morningglory (Ipomoea coccinea); experiment: Test C preemergence, plant response rating; details: Preemergence
Method in brief: as §2

[10] = test system: nutsedge, yellow (yellow nutsedge, Cyperus esculentus); experiment: Test C preemergence, plant response rating; details: Preemergence
Method in brief: as §2

[11] = test system: oilseed rape (Brassica napus); experiment: Test C preemergence, plant response rating; details: Preemergence
Method in brief: as §2

[12] = test system: ragweed (common ragweed, Ambrosia elatior); experiment: Test C preemergence, plant response rating; details: Preemergence
Method in brief: as §2

[13] = test system: ryegrass, Italian (Italian ryegrass, Lolium multiflorum); experiment: Test C preemergence, plant response rating; details: Preemergence
Method in brief: as §2

[14] = test system: soybean (Glycine max); experiment: Test C preemergence, plant response rating; details: Preemergence
Method in brief: as §2

[15] = test system: velvetleaf (Abutilon theophrasti); experiment: Test C preemergence, plant response rating; details: Preemergence
Method in brief: as §2

[16] = test system: waterhemp (common waterhemp, Amaranthus rudis); experiment: Test C preemergence, plant response rating; details: Preemergence
Method in brief: as §2

[17] = test system: wheat (winter wheat, Triticum aestivum); experiment: Test C preemergence, plant response rating; details: Preemergence
Method in brief: as §2

[18] = test system: surinam grass (Brachiaria decumbens); experiment: Test C preemergence, plant response rating
[19] = test system: wild poinsettia (Euphorbia heterophylla); experiment: Test C preemergence, plant response rating
[20] = test system: oat, wild (wild oat Avena fatua); experiment: Test C preemergence, plant response rating

C=C(Br)COC(=O)c1c(Br)cccc1Oc1ncc(Cl)cn1 [Compound 61]
Plant response rating, Ducksalad [1]: 100 | Plant response rating, Rice [2]: 0 | Plant response rating, Sedge, Umbrella [3]: 100 | Plant response rating, Blackgrass ([4]; 62 g ai/ha, scale of 0 to 100): 0 | Plant response rating, Blackgrass ([4]; 125 g ai/ha, scale of 0 to 100): 5 | Plant response rating, Blackgrass ([4]; 16 g ai/ha, scale 0 to 100): 0 | Plant response rating, Blackgrass ([4]; 31 g ai/ha, scale 0 to 100): 0 | Plant response rating, Corn ([5]; 62 g ai/ha, scale of 0 to 100): 10 | Plant response rating, Corn ([5]; 125 g ai/ha, scale of 0 to 100): 0 | Plant response rating, Corn ([5]; 16 g ai/ha, scale 0 to 100): 0 | Plant response rating, Corn ([5]; 31 g ai/ha, scale 0 to 100): 0 | Plant response rating, Crabgrass, Large ([6]; 62 g ai/ha, scale of 0 to 100): 75 | Plant response rating, Crabgrass, Large ([6]; 125 g ai/ha, scale of 0 to 100): 90 | Plant response rating, Crabgrass, Large ([6]; 16 g ai/ha, scale 0 to 100): 0 | Plant response rating, Crabgrass, Large ([6]; 31 g ai/ha, scale 0 to 100): 10 | Plant response rating, Foxtail, Giant ([7]; 62 g ai/ha, scale of 0 to 100): 60 | Plant response rating, Foxtail, Giant ([7]; 125 g ai/ha, scale of 0 to 100): 65 | Plant response rating, Foxtail, Giant ([7]; 16 g ai/ha, scale 0 to 100): 0 | Plant response rating, Foxtail, Giant ([7]; 31 g ai/ha, scale 0 to 100): 50 | Plant response rating, Lambsquarters ([8]; 125 g ai/ha, scale of 0 to 100): 60 | Plant response rating, Lambsquarters ([8]; 16 g ai/ha, scale 0 to 100): 5 | Plant response rating, Lambsquarters ([8]; 31 g ai/ha, scale 0 to 100): 15 | Plant response rating, Lambsquarters ([8]; 62 g ai/ha, scale 0 to 100): 50 | Plant response rating, Morningglory ([9]; 125 g ai/ha, scale of 0 to 100): 0 | Plant response rating, Morningglory ([9]; 16 g ai/ha, scale 0 to 100): 0 | Plant response rating, Morningglory ([9]; 31 g ai/ha, scale 0 to 100): 0 | Plant response rating, Morningglory ([9]; 62 g ai/ha, scale 0 to 100): 0 | Plant response rating, Nutsedge, Yellow ([10]; 125 g ai/ha, scale of 0 to 100): 0 | Plant response rating, Nutsedge, Yellow ([10]; 16 g ai/ha, scale 0 to 100): 0 | Plant response rating, Nutsedge, Yellow ([10]; 31 g ai/ha, scale 0 to 100): 0 | Plant response rating, Nutsedge, Yellow ([10]; 62 g ai/ha, scale 0 to 100): 0 | Plant response rating, Oilseed Rape ([11]; 125 g ai/ha, scale of 0 to 100): 10 | Plant response rating, Oilseed Rape ([11]; 16 g ai/ha, scale 0 to 100): 0 | Plant response rating, Oilseed Rape ([11]; 31 g ai/ha, scale 0 to 100): 0 | Plant response rating, Oilseed Rape ([11]; 62 g ai/ha, scale 0 to 100): 0 | Plant response rating, Ragweed ([12]; 125 g ai/ha, scale of 0 to 100): 30 | Plant response rating, Ragweed ([12]; 16 g ai/ha, scale 0 to 100): 0 | Plant response rating, Ragweed ([12]; 31 g ai/ha, scale 0 to 100): 0 | Plant response rating, Ragweed ([12]; 62 g ai/ha, scale 0 to 100): 5 | Plant response rating, Ryegrass, Italian ([13]; 125 g ai/ha, scale of 0 to 100): 5 | Plant response rating, Ryegrass, Italian ([13]; 16 g ai/ha, scale 0 to 100): 0 | Plant response rating, Ryegrass, Italian ([13]; 31 g ai/ha, scale 0 to 100): 0 | Plant response rating, Ryegrass, Italian ([13]; 62 g ai/ha, scale 0 to 100): 0 | Plant response rating, Soybean ([14]; 125 g ai/ha, scale of 0 to 100): 10 | Plant response rating, Soybean ([14]; 31 g ai/ha, scale 0 to 100): 20 | Plant response rating, Soybean ([14]; 62 g ai/ha, scale 0 to 100): 20 | Plant response rating, Velvetleaf ([15]; 125 g ai/ha, scale of 0 to 100): 5 | Plant response rating, Velvetleaf ([15]; 16 g ai/ha, scale 0 to 100): 0 | Plant response rating, Velvetleaf ([15]; 31 g ai/ha, scale 0 to 100): 5 | Plant response rating, Velvetleaf ([15]; 62 g ai/ha, scale 0 to 100): 5 | Plant response rating, Waterhemp ([16]; 125 g ai/ha, scale of 0 to 100): 100 | Plant response rating, Waterhemp ([16]; 16 g ai/ha, scale 0 to 100): 50 | Plant response rating, Waterhemp ([16]; 31 g ai/ha, scale 0 to 100): 75 | Plant response rating, Waterhemp ([16]; 62 g ai/ha, scale 0 to 100): 90 | Plant response rating, Wheat ([17]; 125 g ai/ha, scale of 0 to 100): 10 | Plant response rating, Wheat ([17]; 16 g ai/ha, scale 0 to 100): 0 | Plant response rating, Wheat ([17]; 31 g ai/ha, scale 0 to 100): 0 | Plant response rating, Wheat ([17]; 62 g ai/ha, scale 0 to 100): 5 | Plant response rating, Surinam Grass ([18]; 16 g ai/ha, scale 0 to 100): 0 | Plant response rating, Surinam Grass ([18]; 31 g ai/ha, scale 0 to 100): 10 | Plant response rating, Surinam Grass ([18]; 62 g ai/ha, scale 0 to 100): 60 | Plant response rating, Surinam Grass ([18]; 125 g ai/ha, scale of 0 to 100): 25 | Plant response rating, Poinsettia, Wild ([19]; 16 g ai/ha, scale 0 to 100): 0 | Plant response rating, Poinsettia, Wild ([19]; 31 g ai/ha, scale 0 to 100): 0 | Plant response rating, Poinsettia, Wild ([19]; 62 g ai/ha, scale 0 to 100): 0 | Plant response rating, Poinsettia, Wild ([19]; 125 g ai/ha, scale of 0 to 100): 0 | Plant response rating, Oat, Wild ([20]; 16 g ai/ha, scale 0 to 100): 0 | Plant response rating, Oat, Wild ([20]; 31 g ai/ha, scale 0 to 100): 0 | Plant response rating, Oat, Wild ([20]; 62 g ai/ha, scale 0 to 100): 5 | Plant response rating, Oat, Wild ([20]; 125 g ai/ha, scale of 0 to 100): 5
